Each structure is given as a SMILES string.

Holding throughout (experiment): Bliss excess, mean over the matrix (fraction); higher = more synergy
Assay [1] relates to DMS-53 (Small Cell Lung Carcinoma). Summed up: (§1)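 Bliss excess equals the observed combination effect minus the expected value EA + EB − EA·EB, where EA and EB are the effects of each agent alone. Combination Emax is the second-highest inhibition within the matrix. Inhibition was scaled from CellTiter-Glo 2.0 luminescence, with 0 set by vehicle wells and 1 by blank wells, after 72 hours of two-drug dosing of cells plated in 1536-well plates.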

The subject of assay [2] is A2780 (Ovarian Carcinoma). Summed up:
as §1

Assay [3] relates to 769-P (Kidney Carcinoma). Summed up: as §1
Assay [4] deals with RH-41 (Rhabdomyosarcoma). Summed up:
as §1

The subject of assay [5] is Jurkat (T-Lymphoblastic Leukemia). The procedure, abridged:
as §1

For assay [6], the system named is HCC1428 (Breast Carcinoma). Summed up: as §1
Assay [7] relates to CGTH-W-1 (Thyroid Gland Carcinoma). The procedure, abridged: as §1
Assay [8] concerns EW-16 (Ewing's Sarcoma). The procedure, abridged:
as §1

Assay [9] deals with EPLC-272H (Other Solid Carcinomas). Summed up: as §1
Assay [10] deals with NCI-H441 (Lung Adenocarcinoma). The procedure, abridged: as §1
For assay [11], the system named is CAL-27 (Oral Cavity Carcinoma). The procedure, abridged:
as §1

The subject of assay [12] is A253 (Head and Neck Carcinoma). Summed up: as §1
Assay [13] relates to GCT (Other Solid Carcinomas). The procedure, abridged: as §1
In assay [14] the test system is NCI-H1651 (Lung Adenocarcinoma). The procedure, abridged:
as §1

The subject of assay [15] is AU565 (Breast Carcinoma). Summed up:
as §1

Assay [16] deals with JIMT-1 (Breast Carcinoma). Summed up: as §1
Assay [17] has as its system MDA-MB-436 (Breast Carcinoma). The procedure, abridged: as §1
In assay [18] the test system is LS-411N (Colorectal Carcinoma). The procedure, abridged:
as §1

For assay [19], the system named is huH-1 (Hepatocellular Carcinoma). The procedure, abridged:
as §1

Assay [20] relates to CA46 (Burkitt's Lymphoma). The procedure, abridged: as §1

Consider `CC1(C)CCC(CN2CCN(c3ccc(C(=O)NS(=O)(=O)c4ccc(NCC5CCOCC5)c([N+](=O)[O-])c4)c(Oc4cnc5[nH]ccc5c4)c3)CC2)=C(c2ccc(Cl)cc2)C1` [Venetoclax] + C[C@@H]1COCCN1C2=NC(=NC(=C2)C3(CC3)[S@](=N)(=O)C)C4=C5C=CNC5=NC=C4 [AZD6738] (first compound max 1 µM, 7x7, partner max 10 µM), for which the Bliss excess in assay [1] is 0.119; in assay [2], -0.0548; in [3], -0.0067; in [4] it was 0.0355; in assay [5], 0.0361; in [6] it was -0.0137. Also, the Bliss excess in [7] was -0.0224; in assay [8], -0.0607; in [9] it was -0.0233; in assay [10], -0.0483; in assay [11] it was -0.0559; in assay [12], -0.0372. Further, the Bliss excess is -0.112 in [13]; -0.0123 in assay [14]; 0.0024 in assay [15]; -0.0643 in assay [16]; -0.0167 in [17]; -0.0311 in assay [18]. Also, the Bliss excess in assay [19] is -0.045; in assay [20], 0.0093.

As to `CN(C)CCCOc1ccc(-c2ccc3ncc4c(c3c2)n(C2CCOCC2)c(=O)n4C)cn1` [AZD0156] + CCN(CCO)CCCOc1ccc2c(Nc3cc(CC(=O)Nc4cccc(F)c4)[nH]n3)ncnc2c1 [AZD2811] (first compound max 1 µM, 7x7, partner max 1 µM), the Bliss excess in assay [1] was -0.0251; in [2], 0.0336; in assay [3], -0.0343; in assay [4] it was 0.0369; in assay [5], 0.0543; in assay [6], -0.06. Besides, the Bliss excess in [7] was -0.0076; in assay [8], 0.0083; in [9], 0.0394; in [10] it was -0.0776; in assay [11], -0.0054; in assay [12], -0.0119. In addition, the Bliss excess was -0.0126 in [13]; -0.0167 in [14]; 0.0021 in [15]; -0.0181 in [16]; -0.0539 in assay [17]; -0.0168 in [18]. The results for the Bliss excess in [19] and in assay [20] were 0.0049 and 0.0059, respectively.

Regarding `CS(=O)(=O)CCNCc1ccc(-c2ccc3ncnc(Nc4ccc(OCc5cccc(F)c5)c(Cl)c4)c3c2)o1` [Lapatinib] + C[C@@H](Oc1cc(-c2cnn(C3CCNCC3)c2)cnc1N)c1c(Cl)ccc(F)c1Cl [Crizotinib] (first compound max 10 µM, 7x7, partner max 10 µM), the Bliss excess in [1] was -0.0205; in assay [2], -0.0277; in [3], -0.0331; in [4], -0.0054; in assay [5] it was 0.0331; in [6] it was -0.043. Moreover, the Bliss excess is -0.0294 in assay [7]; -0.0562 in assay [8]; 0.0191 in assay [9]; -0.0412 in [10]; -0.0589 in assay [11]; -0.0221 in assay [12]. Moreover, the Bliss excess in assay [13] was -0.0251; in [14], -0.0331; in assay [15] it was -0.0287; in assay [16], 0.0444; in assay [17] it was -0.0237; in [18], -0.033. Moreover, the Bliss excess in assay [19] is -0.0577; in assay [20] it was 0.0216.

As to `CCc1c2c(nc3ccc(O)cc13)-c1cc3c(c(=O)n1C2)COC(=O)[C@]3(O)CC` [SN-38] + CN(C)CCCOc1ccc(-c2ccc3ncc4c(c3c2)n(C2CCOCC2)c(=O)n4C)cn1 [AZD0156] (first compound max 0.3 µM, 7x7, partner max 1 µM), the Bliss excess is -0.0288 in assay [1]; -0.0099 in assay [2]; 0.018 in assay [3]; -0.0913 in assay [4]; 0.059 in assay [5]; -0.0584 in [6]. The Bliss excess is -0.0056 in assay [7]; 0.0385 in assay [8]; 0.0536 in assay [9]; -0.0052 in [10]; 0.0255 in assay [11]; -0.0019 in assay [12]. Besides, the Bliss excess was 0.0183 in assay [13]; -0.021 in [14]; -0.0621 in assay [15]; 0.0056 in [16]; 0.0033 in [17]; 0.0079 in assay [18]. In addition, the values for the Bliss excess in assay [19] and in assay [20] were 0.0502 and 0.0951, respectively.

`CC1(C)CCC(CN2CCN(c3ccc(C(=O)NS(=O)(=O)c4ccc(NCC5CCOCC5)c([N+](=O)[O-])c4)c(Oc4cnc5[nH]ccc5c4)c3)CC2)=C(c2ccc(Cl)cc2)C1` [Venetoclax] + C=CCn1c(=O)c2cnc(Nc3ccc(N4CCN(C)CC4)cc3)nc2n1-c1cccc(C(C)(C)O)n1 [AZD1775] (first compound max 1 µM, partner max 1 µM): the Bliss excess was 0.0804 in assay [1]; 0.0477 in assay [2]; -0.0081 in assay [3]; 0.0778 in assay [4]; -0.0183 in assay [5]; -0.0386 in assay [6]. Further, the Bliss excess was -0.0114 in assay [7]; -0.0504 in assay [8]; -0.025 in assay [9]; 0.002 in assay [10]; -0.0321 in assay [11]; 0.0263 in [12]. In addition, the Bliss excess was -0.0339 in assay [13]; -0.0218 in assay [14]; 0.0756 in [15]; -0.0568 in assay [16]; -0.0202 in assay [17]; -0.0856 in [18]. The figures for the Bliss excess in [19] and in [20] were -0.066 and -0.0322, respectively.

For the compound `Cn1cnc2c(F)c(Nc3ccc(Br)cc3Cl)c(C(=O)NOCCO)cc21` [Selumetinib] + CC(C)n1c(=O)n(C)c2cnc3cc(F)c(-c4ccc(OCCCN5CCCCC5)nc4)cc3c21 [AZD1390] (first compound max 10 µM, 7x7, partner max 0.3 µM), the Bliss excess in [1] was -0.0267; in assay [2], -0.0369; in assay [3], 0.0125; in assay [4], -0.0082; in assay [5], -0.0321; in [6] it was -0.0333. The Bliss excess is -0.0388 in [7]; -0.0582 in [8]; -0.0442 in [9]; -0.0394 in [10]; -0.0489 in [11]; -0.0504 in [12]. The Bliss excess was -0.0054 in [13]; -0.0305 in [14]; 0.005 in assay [15]; -0.0471 in assay [16]; -0.0394 in assay [17]; -0.0107 in assay [18]. Besides, the Bliss excess in [19] was -0.0349; in assay [20], -0.006.

On to `Cc1c2c(nn1C)CSCc1cc(n(C)n1)CSc1cc(c3ccccc3c1)OCCCc1c(C(=O)O)n(C)c3c-2c(Cl)ccc13` [AZD5991] + C[C@@H](Nc1cc(F)cc(F)c1)c1cc(C(=O)N(C)C)cc2c(=O)cc(N3CCOCC3)oc12 [AZD8186] (first compound max 1 µM, 7x7, partner max 3 µM), for which the Bliss excess in assay [1] was 0.0267; in assay [2], -0.0049; in [3], -0.0256; in assay [4], -0.0114; in assay [5] it was -0.0077; in assay [6], -0.009. The Bliss excess was -0.0348 in assay [7]; -0.0571 in assay [8]; 0.0238 in [9]; -0.0189 in [10]; 0.0034 in assay [11]; -0.0396 in [12]. Besides, the Bliss excess in assay [13] was -0.0351; in [14], -0.0293; in [15], 0.0418; in assay [16], -0.0492; in assay [17], -0.0139; in [18] it was 0.0064. In addition, the Bliss excess was -0.0024 in assay [19] and -0.0611 in assay [20].

These data come from the supplement of paper PMC11061612.
